Laboratory results taken from PubChem BioAssay (NCI).
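Five concentrations, 48 hours, 96-well plates. TGI: concentration producing complete growth inhibition.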

Columns and labels:
Assay in all cases: NCI anticancer screen, dose series, 48 h
A498 renal = system: A498 renal
IGROV1 ovarian = system: IGROV1 ovarian
HOP-62 NSCLC = system: HOP-62 NSCLC
UACC-62 melanoma = system: UACC-62 melanoma
EKVX NSCLC = system: EKVX NSCLC
HCT-116 colon = system: HCT-116 colon
RXF 393 renal = system: RXF 393 renal
NCI-H226 lung = system: NCI-H226 lung
SK-OV-3 ovarian = system: SK-OV-3 ovarian
ACHN renal = system: ACHN renal
PC-3 prostate = system: PC-3 prostate
DU-145 prostate = system: DU-145 prostate
M14 melanoma = system: M14 melanoma
UACC-257 melanoma = system: UACC-257 melanoma
MDA-N = system: MDA-N
SF-268 CNS = system: SF-268 CNS
BT-549 breast = system: BT-549 breast
SK-MEL-28 melanoma = system: SK-MEL-28 melanoma
HCC-2998 colon = system: HCC-2998 colon
HL-60(TB) leukemia = system: HL-60(TB) leukemia
786-0 renal = system: 786-0 renal
SNB-75 CNS = system: SNB-75 CNS
MDA-MB-231 breast = system: MDA-MB-231 breast
SF-295 CNS = system: SF-295 CNS
NCI-H460 lung = system: NCI-H460 lung
SK-MEL-5 melanoma = system: SK-MEL-5 melanoma
MALME-3M melanoma = system: MALME-3M melanoma
HOP-92 NSCLC = system: HOP-92 NSCLC
SK-MEL-2 melanoma = system: SK-MEL-2 melanoma
OVCAR-3 ovarian = system: OVCAR-3 ovarian
SN12C renal = system: SN12C renal
TK-10 renal = system: TK-10 renal
U251 CNS = system: U251 CNS
MOLT-4 leukemia = system: MOLT-4 leukemia
CAKI-1 renal = system: CAKI-1 renal
MDA-MB-435 = system: MDA-MB-435
KM12 colon = system: KM12 colon
UO-31 renal = system: UO-31 renal
HS 578T breast = system: HS 578T breast
K-562 leukemia = system: K-562 leukemia
CCRF-CEM leukemia = system: CCRF-CEM leukemia
HCT-15 colon = system: HCT-15 colon
COLO 205 colon = system: COLO 205 colon
SR leukemia = system: SR leukemia
RPMI-8226 leukemia = system: RPMI-8226 leukemia
HT29 colon = system: HT29 colon
SW-620 colon = system: SW-620 colon
NCI-H23 lung = system: NCI-H23 lung
SF-539 CNS = system: SF-539 CNS
T-47D breast = system: T-47D breast
MCF7 breast = system: MCF7 breast
A549 NSCLC = system: A549 NSCLC
NCI/ADR-RES ovarian = system: NCI/ADR-RES ovarian
SNB-19 CNS = system: SNB-19 CNS
LOX IMVI melanoma = system: LOX IMVI melanoma
OVCAR-4 ovarian = system: OVCAR-4 ovarian
OVCAR-8 ovarian = system: OVCAR-8 ovarian
NCI-H522 lung = system: NCI-H522 lung

OC(c1cc(-c2ccccc2)nc2c1ccc1ccccc12)C1CCCCN1 (configuration not stated)
TGI (A498 renal): 3.76 µM
TGI (IGROV1 ovarian): 2.98 µM
TGI (HOP-62 NSCLC): 3.24 µM
TGI (UACC-62 melanoma): 3.46 µM
TGI (EKVX NSCLC): 5.4 µM
TGI (HCT-116 colon): 2.92 µM
TGI (RXF 393 renal): 3.03 µM
TGI (NCI-H226 lung): > 100 µM
TGI (SK-OV-3 ovarian): 3.32 µM
TGI (ACHN renal): 3.26 µM
TGI (PC-3 prostate): 3.07 µM
TGI (DU-145 prostate): 3.45 µM
TGI (M14 melanoma): 3.22 µM
TGI (UACC-257 melanoma): 3.41 µM
TGI (MDA-N): 2.97 µM
TGI (SF-268 CNS): 2.88 µM
TGI (BT-549 breast): 25 µM
TGI (SK-MEL-28 melanoma): 3.18 µM
TGI (HCC-2998 colon): 0.586 µM
TGI (HL-60(TB) leukemia): 1.13 µM
TGI (786-0 renal): 3.04 µM
TGI (SNB-75 CNS): 3.43 µM
TGI (MDA-MB-231 breast): 3.36 µM
TGI (SF-295 CNS): 3.44 µM
TGI (NCI-H460 lung): 3.62 µM
TGI (SK-MEL-5 melanoma): 8.55 µM
TGI (MALME-3M melanoma): 3.19 µM
TGI (HOP-92 NSCLC): 3.56 µM
TGI (SK-MEL-2 melanoma): 3.17 µM
TGI (OVCAR-3 ovarian): 3.29 µM
TGI (SN12C renal): 3.1 µM
TGI (TK-10 renal): 3.5 µM
TGI (U251 CNS): 3.15 µM
TGI (MOLT-4 leukemia): > 100 µM
TGI (CAKI-1 renal): 4.04 µM
TGI (MDA-MB-435): 3.33 µM
TGI (KM12 colon): 3.35 µM
TGI (UO-31 renal): 2.45 µM
TGI (HS 578T breast): 3.53 µM
TGI (K-562 leukemia): > 100 µM

NC(=S)N/N=C\CC(O)(C(F)(F)F)C(F)(F)F
TGI (A498 renal): > 10 µM
TGI (IGROV1 ovarian): > 10 µM
TGI (HOP-62 NSCLC): > 10 µM
TGI (UACC-62 melanoma): > 10 µM
TGI (CCRF-CEM leukemia): > 10 µM
TGI (EKVX NSCLC): > 10 µM
TGI (HCT-116 colon): > 10 µM
TGI (RXF 393 renal): > 10 µM
TGI (NCI-H226 lung): > 10 µM
TGI (SK-OV-3 ovarian): > 10 µM
TGI (HCT-15 colon): > 10 µM
TGI (ACHN renal): > 10 µM
TGI (PC-3 prostate): > 10 µM
TGI (DU-145 prostate): > 10 µM
TGI (M14 melanoma): > 10 µM
TGI (UACC-257 melanoma): > 10 µM
TGI (COLO 205 colon): > 10 µM
TGI (SR leukemia): > 10 µM
TGI (MDA-N): > 10 µM
TGI (SF-268 CNS): > 10 µM
TGI (RPMI-8226 leukemia): > 10 µM
TGI (HT29 colon): > 10 µM
TGI (SK-MEL-28 melanoma): > 10 µM
TGI (SW-620 colon): > 10 µM
TGI (HCC-2998 colon): > 10 µM
TGI (HL-60(TB) leukemia): > 10 µM
TGI (NCI-H23 lung): > 10 µM
TGI (786-0 renal): > 10 µM
TGI (SNB-75 CNS): > 10 µM
TGI (MDA-MB-231 breast): > 10 µM
TGI (SF-539 CNS): > 10 µM
TGI (SF-295 CNS): > 10 µM
TGI (NCI-H460 lung): > 10 µM
TGI (T-47D breast): > 10 µM
TGI (MCF7 breast): > 10 µM
TGI (A549 NSCLC): > 10 µM
TGI (NCI/ADR-RES ovarian): > 10 µM
TGI (SK-MEL-5 melanoma): > 10 µM
TGI (SNB-19 CNS): > 10 µM
TGI (MALME-3M melanoma): > 10 µM
TGI (HOP-92 NSCLC): > 10 µM
TGI (SK-MEL-2 melanoma): > 10 µM
TGI (OVCAR-3 ovarian): > 10 µM
TGI (SN12C renal): > 10 µM
TGI (TK-10 renal): > 10 µM
TGI (LOX IMVI melanoma): > 10 µM
TGI (OVCAR-4 ovarian): > 10 µM
TGI (U251 CNS): > 10 µM
TGI (MOLT-4 leukemia): > 10 µM
TGI (CAKI-1 renal): > 10 µM
TGI (MDA-MB-435): > 10 µM
TGI (OVCAR-8 ovarian): > 10 µM
TGI (KM12 colon): > 10 µM
TGI (UO-31 renal): > 10 µM
TGI (HS 578T breast): > 10 µM
TGI (NCI-H522 lung): > 10 µM
TGI (K-562 leukemia): > 10 µM
